For five compounds, % of control, % of inhibition and % activity results are on record in ChEMBL document CHEMBL5465560, “Selectivity Literature for EUbOPEN Chemogenomic Library” (2024).

For assay [1], the target named is T1, Dual specificity mitogen-activated protein kinase kinase 4 (Homo sapiens) (UniProt P45985).
T1 sequence (whole entry): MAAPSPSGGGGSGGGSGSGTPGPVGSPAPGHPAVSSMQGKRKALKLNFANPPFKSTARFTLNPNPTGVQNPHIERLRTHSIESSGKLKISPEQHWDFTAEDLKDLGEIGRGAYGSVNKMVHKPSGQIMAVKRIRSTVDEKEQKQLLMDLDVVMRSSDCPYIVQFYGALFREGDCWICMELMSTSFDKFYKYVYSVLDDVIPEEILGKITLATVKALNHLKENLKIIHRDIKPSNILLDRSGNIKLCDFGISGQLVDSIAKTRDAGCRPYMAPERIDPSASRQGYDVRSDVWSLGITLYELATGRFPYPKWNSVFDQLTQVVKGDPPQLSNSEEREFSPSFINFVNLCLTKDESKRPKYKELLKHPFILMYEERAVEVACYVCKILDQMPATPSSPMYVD
In words: Selectivity interaction (KinomeScan (DiscoverX)) EUB0001619a MAP2K4. The settings on record: at 1 µM.

Assay [2] has as its target Serine/threonine-protein kinase MARK2 (Homo sapiens) (UniProt Q7KZI7). In words: Selectivity interaction (SelectScreen profiling (Invitrogen)) EUB0000607a MARK2. The note with it: at 2 µM.
In assay [3] the target is T2, Serine/threonine-protein kinase 4 (Homo sapiens) (UniProt Q13043).
T2 sequence (whole entry): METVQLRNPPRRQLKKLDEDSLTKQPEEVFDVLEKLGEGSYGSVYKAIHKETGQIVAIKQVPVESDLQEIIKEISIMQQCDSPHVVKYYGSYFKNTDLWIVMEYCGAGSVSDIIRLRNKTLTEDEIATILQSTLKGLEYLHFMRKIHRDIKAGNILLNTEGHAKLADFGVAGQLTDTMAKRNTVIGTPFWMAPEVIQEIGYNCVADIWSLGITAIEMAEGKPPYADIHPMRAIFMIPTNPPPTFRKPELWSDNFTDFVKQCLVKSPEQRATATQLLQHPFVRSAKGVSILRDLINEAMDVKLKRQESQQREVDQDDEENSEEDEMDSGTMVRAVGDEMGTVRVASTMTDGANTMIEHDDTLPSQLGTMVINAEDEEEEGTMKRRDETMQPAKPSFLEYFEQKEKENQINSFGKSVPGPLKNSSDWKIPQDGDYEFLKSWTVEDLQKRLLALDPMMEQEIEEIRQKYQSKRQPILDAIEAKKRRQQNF
As to the kind of experiment: Selectivity interaction (Kinase panel (Invitrogen)) EUB0000639a STK4. The settings on record: at 200 nM.

Assay [4] deals with T3, Histone-lysine N-methyltransferase NSD3 (Homo sapiens) (UniProt Q9BZ95).
T3 sequence (whole entry): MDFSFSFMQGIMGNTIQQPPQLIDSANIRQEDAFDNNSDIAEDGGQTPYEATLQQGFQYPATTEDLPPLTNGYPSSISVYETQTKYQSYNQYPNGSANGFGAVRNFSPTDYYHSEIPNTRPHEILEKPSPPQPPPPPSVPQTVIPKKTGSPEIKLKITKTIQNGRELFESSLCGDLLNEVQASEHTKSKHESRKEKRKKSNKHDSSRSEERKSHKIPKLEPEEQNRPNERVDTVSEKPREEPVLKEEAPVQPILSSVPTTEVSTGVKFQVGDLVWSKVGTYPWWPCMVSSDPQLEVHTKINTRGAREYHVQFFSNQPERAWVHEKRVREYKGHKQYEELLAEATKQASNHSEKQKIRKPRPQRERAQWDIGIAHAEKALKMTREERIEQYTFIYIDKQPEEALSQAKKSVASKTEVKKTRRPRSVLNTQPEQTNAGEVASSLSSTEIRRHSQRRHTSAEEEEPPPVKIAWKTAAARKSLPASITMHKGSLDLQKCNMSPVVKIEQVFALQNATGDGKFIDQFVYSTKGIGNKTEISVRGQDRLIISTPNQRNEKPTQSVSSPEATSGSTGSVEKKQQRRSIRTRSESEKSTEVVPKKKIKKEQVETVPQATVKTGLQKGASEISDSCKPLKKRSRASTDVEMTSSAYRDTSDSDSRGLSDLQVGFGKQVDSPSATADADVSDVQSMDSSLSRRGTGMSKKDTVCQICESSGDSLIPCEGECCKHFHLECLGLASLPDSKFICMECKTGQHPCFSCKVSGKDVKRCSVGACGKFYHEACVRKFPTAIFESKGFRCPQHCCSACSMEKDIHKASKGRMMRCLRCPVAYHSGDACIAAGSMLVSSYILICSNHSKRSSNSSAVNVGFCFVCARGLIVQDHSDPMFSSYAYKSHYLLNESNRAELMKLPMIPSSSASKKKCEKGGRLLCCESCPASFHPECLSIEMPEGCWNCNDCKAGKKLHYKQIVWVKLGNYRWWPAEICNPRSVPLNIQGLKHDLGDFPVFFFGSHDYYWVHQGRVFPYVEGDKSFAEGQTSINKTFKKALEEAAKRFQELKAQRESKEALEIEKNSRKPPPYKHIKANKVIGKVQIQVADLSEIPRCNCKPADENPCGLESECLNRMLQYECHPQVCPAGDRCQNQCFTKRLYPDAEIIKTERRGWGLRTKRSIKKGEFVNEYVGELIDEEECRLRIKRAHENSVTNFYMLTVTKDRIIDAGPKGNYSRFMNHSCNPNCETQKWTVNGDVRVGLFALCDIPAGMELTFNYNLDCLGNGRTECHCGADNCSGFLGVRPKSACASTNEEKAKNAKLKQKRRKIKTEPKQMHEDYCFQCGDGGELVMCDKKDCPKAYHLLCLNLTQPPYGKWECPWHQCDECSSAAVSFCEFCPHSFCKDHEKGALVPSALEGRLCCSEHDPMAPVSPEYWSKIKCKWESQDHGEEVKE
The note with it: at 10 µM.

Assay [5] concerns the target Interferon-induced, double-stranded RNA-activated protein kinase (Homo sapiens) (UniProt P19525). As to the kind of experiment: Selectivity interaction (KinomeScan (DiscoverX)) EUB0000045b EIF2AK2.

Sequence of Interferon-induced, double-stranded RNA-activated protein kinase (Homo sapiens) (P19525 whole entry): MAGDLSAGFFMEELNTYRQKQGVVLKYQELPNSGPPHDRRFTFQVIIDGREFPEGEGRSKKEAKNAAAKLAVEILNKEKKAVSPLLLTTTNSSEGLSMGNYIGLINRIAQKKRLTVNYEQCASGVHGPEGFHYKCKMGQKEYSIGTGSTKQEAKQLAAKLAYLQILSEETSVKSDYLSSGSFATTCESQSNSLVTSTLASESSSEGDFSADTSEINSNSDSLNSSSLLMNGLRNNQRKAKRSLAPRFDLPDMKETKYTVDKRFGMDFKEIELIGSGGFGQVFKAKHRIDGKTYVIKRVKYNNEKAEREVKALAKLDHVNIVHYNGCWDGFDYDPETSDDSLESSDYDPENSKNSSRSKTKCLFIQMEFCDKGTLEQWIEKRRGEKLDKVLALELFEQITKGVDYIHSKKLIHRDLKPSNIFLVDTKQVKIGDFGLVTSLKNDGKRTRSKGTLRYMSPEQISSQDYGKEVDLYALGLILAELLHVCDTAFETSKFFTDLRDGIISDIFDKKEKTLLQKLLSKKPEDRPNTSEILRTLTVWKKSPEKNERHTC
Sequence of Serine/threonine-protein kinase MARK2 (Homo sapiens) (Q7KZI7 whole entry): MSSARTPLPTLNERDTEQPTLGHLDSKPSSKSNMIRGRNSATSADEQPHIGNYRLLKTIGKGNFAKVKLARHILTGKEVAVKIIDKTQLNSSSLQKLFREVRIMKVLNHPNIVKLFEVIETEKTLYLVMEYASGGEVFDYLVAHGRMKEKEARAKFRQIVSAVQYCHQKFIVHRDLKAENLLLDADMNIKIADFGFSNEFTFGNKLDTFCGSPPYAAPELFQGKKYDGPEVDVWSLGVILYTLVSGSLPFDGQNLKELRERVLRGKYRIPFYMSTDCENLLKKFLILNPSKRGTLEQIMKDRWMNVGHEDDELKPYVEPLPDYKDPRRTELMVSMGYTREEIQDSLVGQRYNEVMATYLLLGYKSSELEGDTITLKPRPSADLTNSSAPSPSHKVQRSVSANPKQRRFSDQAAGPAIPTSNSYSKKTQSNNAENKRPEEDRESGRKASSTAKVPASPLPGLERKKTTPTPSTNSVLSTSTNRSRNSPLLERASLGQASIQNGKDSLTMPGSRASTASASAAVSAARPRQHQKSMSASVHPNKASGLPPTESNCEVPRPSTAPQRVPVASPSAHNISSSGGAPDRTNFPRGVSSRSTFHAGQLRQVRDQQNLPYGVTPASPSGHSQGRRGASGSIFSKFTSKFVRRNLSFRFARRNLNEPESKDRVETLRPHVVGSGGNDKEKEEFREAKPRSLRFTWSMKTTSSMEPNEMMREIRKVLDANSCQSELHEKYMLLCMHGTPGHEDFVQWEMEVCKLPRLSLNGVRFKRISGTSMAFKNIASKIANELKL

In assay [1], `N#Cc1cccc(-c2c[nH]c3ncnc(N4CCOCC4)c23)c1` returned a % of control of 100%.

`CNC(=O)Nc1ccc(-c2nc(N3CC4CCC(C3)O4)c3cnn(C4CCC5(CC4)OCCO5)c3n2)cc1` registered a % of inhibition in assay [2] of 12%.

`CC[C@@H]1[C@H](F)C(=O)N[C@@H]1COc1nccc2cc(C(N)=O)c(OC)cc12` [ZIMLOVISERTIB]: the % of inhibition in assay [3] stood at 13.8%.

As to `CNCCN1CCC(c2cc(CN(C)C(=O)c3cccc(Oc4ccccc4)c3)ccn2)CC1`, in assay [4], the % activity was above 90%.

Turning to `C=CC(=O)Nc1cc(-n2c(=O)ccc3cnc4ccc(-c5ccc(NS(C)(=O)=O)cc5)cc4c32)ccc1C`, the % of control was found to be 100% in assay [5] (at 1 µM) and 71% in assay [5] (at 10 µM).
